Results: patent publication US10456407B2, “Combination therapy for treating cancer” (Epizyme, Inc., priority 2015, dated 2019)

Tested on: WSU-DLCL2 cells
Assay: RT2 Glucocorticoid signaling PCR array, WSU-DLCL2 (WSU) cell line (Table 4c)
Format: cell-based

Compound: C[C@]12C=CC(=O)C=C1CC[C@@H]1[C@@H]2[C@@H](O)C[C@@]2(C)[C@H]1CC[C@]2(O)C(=O)CO [Prednisolone, prednisolone]
- Ct Values, ACTB (gene ACTB): 14.572
- ΔCT (B2M), ACTB (gene ACTB): −4.573
- Ct Values, ADARB1 (gene ADARB1): 26.108
- ΔCT (B2M), ADARB1 (gene ADARB1): 6.963
- ΔΔCT, ADARB1 (gene ADARB1, compared to DMSO): 0.097
- Ct Values, AFF1 (gene AFF1): 27.334
- ΔCT (B2M), AFF1 (gene AFF1): 8.189
- ΔΔCT, AFF1 (gene AFF1, compared to DMSO): −0.464
- Ct Values, AK2 (gene AK2): 20.433
- ΔCT (B2M), AK2 (gene AK2): 1.288
- ΔΔCT, AK2 (gene AK2, compared to DMSO): 0.094
- Ct Values, AMPD3 (gene AMPD3): 27.943
- ΔCT (B2M), AMPD3 (gene AMPD3): 8.798
- ΔΔCT, AMPD3 (gene AMPD3, compared to DMSO): −0.219
- Ct Values, ANGPTL4 (gene ANGPTL4): 30.810
- ΔCT (B2M), ANGPTL4 (gene ANGPTL4): 11.665
- ΔΔCT, ANGPTL4 (gene ANGPTL4, compared to DMSO): −0.329
- Ct Values, ANXA4 (gene ANXA4): 27.406
- ΔCT (B2M), ANXA4 (gene ANXA4): 8.261
- ΔΔCT, ANXA4 (gene ANXA4, compared to DMSO): −0.025
- Ct Values, AQP1 (gene AQP1): 33.595
- ΔCT (B2M), AQP1 (gene AQP1): 14.450
- Ct Values, ARID68 (gene ARID68): 26.721
- ΔCT (B2M), ARID68 (gene ARID68): 7.576
- ΔΔCT, ARID68 (gene ARID68, compared to DMSO): 0.722
- Ct Values, ASPH (gene ASPH): 21.939
- ΔCT (B2M), ASPH (gene ASPH): 2.794
- ΔΔCT, ASPH (gene ASPH, compared to DMSO): −0.041
- Ct Values, ATF4 (gene ATF4): 19.659
- ΔCT (B2M), ATF4 (gene ATF4): 0.514
- ΔΔCT, ATF4 (gene ATF4, compared to DMSO): 0.090
- Ct Values, B2M (gene B2M (normaliser)): 19.145
- ΔCT (B2M), B2M (gene B2M (normaliser)): 0.000
- Ct Values, BCL6 (gene BCL6): 20.898
- ΔCT (B2M), BCL6 (gene BCL6): 1.753
- ΔΔCT, BCL6 (gene BCL6, compared to DMSO): 0.249
- Ct Values, CEBPA (gene CEBPA): 27.838
- ΔCT (B2M), CEBPA (gene CEBPA): 8.693
- ΔΔCT, CEBPA (gene CEBPA, compared to DMSO): −0.295
- Ct Values, CEBPB (gene CEBPB): 25.775
- ΔCT (B2M), CEBPB (gene CEBPB): 6.630
- ΔΔCT, CEBPB (gene CEBPB, compared to DMSO): 0.814
- Ct Values, COL4A2 (gene COL4A2): 34.328
- ΔCT (B2M), COL4A2 (gene COL4A2): 15.183
- Ct Values, CREB1 (gene CREB1): 22.732
- ΔCT (B2M), CREB1 (gene CREB1): 3.587
- ΔΔCT, CREB1 (gene CREB1, compared to DMSO): −0.133
- Ct Values, CREB3 (gene CREB3): 24.551
- ΔCT (B2M), CREB3 (gene CREB3): 5.406
- ΔΔCT, CREB3 (gene CREB3, compared to DMSO): −0.453
- Ct Values, CREB3L4 (gene CREB3L4): 24.437
- ΔCT (B2M), CREB3L4 (gene CREB3L4): 5.292
- ΔΔCT, CREB3L4 (gene CREB3L4, compared to DMSO): −0.330
- Ct Values, CYB561 (gene CYB561): 32.971
- ΔCT (B2M), CYB561 (gene CYB561): 13.826
- ΔΔCT, CYB561 (gene CYB561, compared to DMSO): −3.598
- Ct Values, DDIT4 (gene DDIT4): 22.252
- ΔCT (B2M), DDIT4 (gene DDIT4): 3.107
- ΔΔCT, DDIT4 (gene DDIT4, compared to DMSO): −1.672
- Ct Values, DUSP1 (gene DUSP1): 25.828
- ΔCT (B2M), DUSP1 (gene DUSP1): 6.683
- ΔΔCT, DUSP1 (gene DUSP1, compared to DMSO): 0.454
- Ct Values, EDN1 (gene EDN1): 30.019
- ΔCT (B2M), EDN1 (gene EDN1): 11.674
- Ct Values, EHD3 (gene EHD3): 27.724
- ΔCT (B2M), EHD3 (gene EHD3): 8.579
- ΔΔCT, EHD3 (gene EHD3, compared to DMSO): −1.645
- Ct Values, FK8PS (gene FK8PS): 21.321
- ΔCT (B2M), FK8PS (gene FK8PS): 2.176
- ΔΔCT, FK8PS (gene FK8PS, compared to DMSO): −1.247
- Ct Values, FOSL2 (gene FOSL2): 33.647
- ΔCT (B2M), FOSL2 (gene FOSL2): 14.502
- ΔΔCT, FOSL2 (gene FOSL2, compared to DMSO): 2.843
- Ct Values, GAPDH (gene GAPDH): 16.349
- ΔCT (B2M), GAPDH (gene GAPDH): −2.796
- Ct Values, GDPD1 (gene GDPD1): 28.235
- ΔCT (B2M), GDPD1 (gene GDPD1): 9.090
- ΔΔCT, GDPD1 (gene GDPD1, compared to DMSO): 0.169
- Ct Values, GHRHR (gene GHRHR): 37.739
- ΔCT (B2M), GHRHR (gene GHRHR): 18.644
- ΔΔCT, GHRHR (gene GHRHR, compared to DMSO): 3.458
- Ct Values, GLUL (gene GLUL): 31.475
- ΔCT (B2M), GLUL (gene GLUL): 12.330
- Ct Values, GOT1 (gene GOT1): 22.841
- ΔCT (B2M), GOT1 (gene GOT1): 3.696
- ΔΔCT, GOT1 (gene GOT1, compared to DMSO): 0.262
- Ct Values, H6PD (gene H6PD): 26.197
- ΔCT (B2M), H6PD (gene H6PD): 7.052
- ΔΔCT, H6PD (gene H6PD, compared to DMSO): 0.142
- Ct Values, HNRPLL (gene HNRPLL): 24.750
- ΔCT (B2M), HNRPLL (gene HNRPLL): 5.605
- ΔΔCT, HNRPLL (gene HNRPLL, compared to DMSO): 1.026
- Ct Values, HPRT1 (gene HPRT1): 21.361
- ΔCT (B2M), HPRT1 (gene HPRT1): 2.216
- Ct Values, IL1RN (gene IL1RN): 33.599
- ΔCT (B2M), IL1RN (gene IL1RN): 14.454
- ΔΔCT, IL1RN (gene IL1RN, compared to DMSO): 1.298
- Ct Values, IL10 (gene IL10): 34.306
- ΔCT (B2M), IL10 (gene IL10): 15.161
- Ct Values, KLF9 (gene KLF9): 30.105
- ΔCT (B2M), KLF9 (gene KLF9): 10.960
- ΔΔCT, KLF9 (gene KLF9, compared to DMSO): −0.431
- Ct Values, KLF13 (gene KLF13): 23.792
- ΔCT (B2M), KLF13 (gene KLF13): 4.647
- ΔΔCT, KLF13 (gene KLF13, compared to DMSO): −0.442
- Ct Values, LOX (gene LOX): 34.511
- ΔCT (B2M), LOX (gene LOX): 15.366
- ΔΔCT, LOX (gene LOX, compared to DMSO): 0.550
- Ct Values, MERTK (gene MERTK): 32.524
